Measurements as given in US20020182717A1, “Method of preparing supported lipid film membranes and use thereof” (Biacore AB, priority 2001, published 2002).

Target: T1, rhodopsin (Bos taurus, UniProt P02699)
T1 construct: Gift: Dr. Andreas von Usedom, Institute for Medical Physics and Biophysics, Humboldt University, Berlin
Assay: Assay for rhodopsin functionality (transducin dissociation on illumination, SPR, BIACORE X)
Format: biochemical
Details: 10 μM 9-cis-retinal, after extended illumination and over night incubation
Description: In order to judge if the rhodopsin has a native and functional conformation after immobilization and supplementation with lipids as described in steps A and B above, its signaling capacity was assayed. When rhodopsin is activated by light, it transmits its signal by activating transducin. Activated transducin dissociates from the membrane under consumption of GTP (Heyse, S., et al., Biochemistry (1998) 37:507-522).
Measurements of transducin dissociation by activated rhodopsin were performed in a BIACORE X instrument into which an optical fiber had been inserted for illumination of the flow cells. The instrument temperature was set to 20° C. All the operations were performed under safe red light. […]
This solution was injected at 5 μl/min over both the rhodopsin and the reference flow cells in the manual mode. Upon injection, transducin bound readily to both the rhodopsin-POPC surface and the POPC reference surface, but when the injection was finished it dissociated very rapidly from the surface into the mobile phase of running buffer. […] The activation of the receptor was recorded as a surface mass decrease caused by dissociation of the activated transducin from the membrane. […]

T1 sequence (P02699 whole entry): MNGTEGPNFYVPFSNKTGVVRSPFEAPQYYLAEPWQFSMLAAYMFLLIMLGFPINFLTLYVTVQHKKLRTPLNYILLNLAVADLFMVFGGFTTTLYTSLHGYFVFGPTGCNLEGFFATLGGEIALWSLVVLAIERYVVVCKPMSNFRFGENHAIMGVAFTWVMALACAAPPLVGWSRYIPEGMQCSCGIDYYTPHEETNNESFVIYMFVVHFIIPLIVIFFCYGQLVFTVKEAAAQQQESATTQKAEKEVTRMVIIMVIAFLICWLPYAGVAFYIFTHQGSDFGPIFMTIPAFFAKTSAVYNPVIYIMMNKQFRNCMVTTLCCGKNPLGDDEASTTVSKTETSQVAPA

Compound: CC1=C(/C=C/C(C)=C\C=C\C(C)=C\C=O)C(C)(C)CCC1 [9-cis-retinal]
- signalling capacity of exhausted reconstituted rhodopsin after ligand injection: recovery of the signalling capacity
